This is an account of results in US20240374591A1, “CEREBLON BINDING COMPOUNDS, COMPOSITIONS THEREOF, AND METHODS OF TREATMENT THEREWITH” (CELGENE CORPORATION, priority 2021, published 2024).

Counter-ions that a name gives are not always drawn.

For the experiment, the target named is T1, AR in VCaP cells (Homo sapiens, UniProt P10275).
T1 construct: endogenous in cells; host or cells: VCaP cells
T1 sequence (P10275 1-920): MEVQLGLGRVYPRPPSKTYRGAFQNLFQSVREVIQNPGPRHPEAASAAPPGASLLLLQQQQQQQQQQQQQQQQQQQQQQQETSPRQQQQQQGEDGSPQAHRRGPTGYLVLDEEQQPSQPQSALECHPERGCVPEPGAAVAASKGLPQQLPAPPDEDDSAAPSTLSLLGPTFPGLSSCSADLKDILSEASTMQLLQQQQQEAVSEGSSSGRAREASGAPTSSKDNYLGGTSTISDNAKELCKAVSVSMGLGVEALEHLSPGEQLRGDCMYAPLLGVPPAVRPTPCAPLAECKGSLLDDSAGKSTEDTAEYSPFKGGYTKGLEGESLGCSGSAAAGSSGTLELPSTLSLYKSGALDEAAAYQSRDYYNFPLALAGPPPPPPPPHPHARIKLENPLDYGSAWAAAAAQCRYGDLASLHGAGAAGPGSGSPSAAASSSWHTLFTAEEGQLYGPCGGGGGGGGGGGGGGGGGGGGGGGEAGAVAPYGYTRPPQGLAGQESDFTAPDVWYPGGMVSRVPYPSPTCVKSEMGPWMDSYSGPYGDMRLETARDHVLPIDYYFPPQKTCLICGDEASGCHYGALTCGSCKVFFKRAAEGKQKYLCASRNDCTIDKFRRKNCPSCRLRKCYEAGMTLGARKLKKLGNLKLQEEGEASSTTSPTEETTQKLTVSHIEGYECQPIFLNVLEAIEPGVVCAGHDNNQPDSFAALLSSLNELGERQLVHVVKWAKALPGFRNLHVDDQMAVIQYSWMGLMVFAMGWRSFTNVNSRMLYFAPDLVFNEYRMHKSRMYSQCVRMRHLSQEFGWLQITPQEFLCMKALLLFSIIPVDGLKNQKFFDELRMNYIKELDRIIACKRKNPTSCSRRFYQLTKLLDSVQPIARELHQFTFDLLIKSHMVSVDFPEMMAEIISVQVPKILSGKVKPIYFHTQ
Nature of the experiment: VCAP AR Degradation Assay (AR ELISA, 24 h). The class given is cell-based. To be noted: for DC50: concentration giving 50% AR degradation vs DMSO control; for remaining activity at up to 5 µM: lowest measured AR level normalized to DMSO control, top concentration 5 μM, read-out: Y. The protocol:
VCAP AR Degradation Assay. Test compounds were pre-dispensed into a Corning CellBind 96-well clear bottom plate (Cat #3300) using an acoustic dispenser to make a 10-point concentration series at 1:3 dilution for each compound. The final top concentration of each compound was 5 μM. DMSO at a final concentration of 0.1% was used as a control. VCaP cells cultured in DMEM with 8% fetal bovine serum (FBS) were seeded at 50K cells per well in a 200 μL volume into the compound plate and incubated at 37° C. in a CO2 incubator for 24 h. The medium was carefully removed from the cells and the plate was placed on ice. One hundred μL of ice-cold 1× cell lysis buffer from Cell Signaling Technologies (Cat #9803) was added to each well of the cells and the plate was incubated at 4° C. on a shaker for 1 h. Fifteen μL of cell lysate was used for AR ELISA detection using a PathScan Total Sandwich AR ELISA kit (Cell Signaling Technology, Cat #12580). AR levels in compound-treated wells were normalized to that of DMSO control and expressed as percent of control (PoC) (y). A Four Parameter Logistic Model (Sigmoidal Dose-Response Model) was used to determine the compound's DC50, and EC50, using the following equation: […]
The lowest measured AR level normalized to DMSO control in response to compound treatment, termed Y value, was used to characterize the compound-mediated AR degradation efficiency.

For the compound `C[C@@H]1CN(CCCO[C@H]2CC[C@H](N3C(=S)N(c4ccc(C#N)c(C(F)(F)F)c4)C(=O)C3(C)C)CC2)C[C@H](C)N1CC(=O)Nc1ccc(N2CCC(=O)NC2=O)nc1` [Cmpd 12, 2-((2R,6S)-4-(3-((trans-4-(3-(4-Cyano-3-(trifluoromethyl)phenyl)-5,5-dimethyl-4-oxo-2-thioxoimidazolidin-1-yl)cyclohexyl)oxy)propyl)-2,6-dimethylpiperazin-1-yl)-N-(6-(2,4-dioxotetrahydropyrimidin-1(2H)-yl)pyridin-3-yl)acetamide hydrochloride], the DC50 (as a rule, the concentration giving 50% degradation) is 100 to 10000 nM and the remaining activity at up to 5 µM fell in the range of 30 to 70%.
With `CC1(C)C(=O)N(c2cnc(C#N)c(C(F)(F)F)c2)C(=S)N1[C@H]1CC[C@H](OCCN2CCN(CC(=O)Nc3ccc(C4CCC(=O)NC4=O)nc3)[C@@H](C(F)(F)F)C2)CC1` (stereo partly drawn) [Cmpd 24, 2-((R)-4-(2-(((trans)-4-(3-(6-Cyano-5-(trifluoromethyl)pyridin-3-yl)-5,5-dimethyl-4-oxo-2-thioxoimidazolidin-1-yl)cyclohexyl)oxy)ethyl)-2-(trifluoromethyl)piperazin-1-yl)-N-(6-(2,6-dioxopiperidin-3-yl)pyridin-3-yl)acetamide], the DC50 is not above 5 nM and the remaining activity at up to 5 µM lay in the range of 20 to 30%.
On to `CC1(C)C(=O)N(c2ccc(C#N)c(C(F)(F)F)c2)C(=S)N1[C@H]1CC[C@H](OCCN2CCN(CC(=O)Nc3ccc(C4CCC(=O)NC4=O)nc3)[C@@H](C(F)(F)F)C2)CC1` (stereo partly drawn) [Cmpd 13, 2-((R)-4-(2-((trans-4-(3-(4-Cyano-3-(trifluoromethyl)phenyl)-5,5-dimethyl-4-oxo-2-thioxoimidazolidin-1-yl)cyclohexyl)oxy)ethyl)-2-(trifluoromethyl)piperazin-1-yl)-N-(6-(2,6-dioxopiperidin-3-yl)pyridin-3-yl)acetamide hydrochloride], for which the DC50 is 5 to 10 nM and the remaining activity at up to 5 µM was in the range of 20 to 30%.
Turning to `C[C@@H]1CN(CCC[C@H]2CC[C@H](N3C(=S)N(c4cnc(C#N)c(C(F)(F)F)c4)C(=O)C3(C)C)CC2)C[C@H](C)N1CC(=O)Nc1ccc(C2CCC(=O)NC2=O)nc1` (stereo partly drawn) [Cmpd 8, 2-((2R,6S)-4-(3-(trans-4-(3-(6-Cyano-5-(trifluoromethyl)pyridin-3-yl)-5,5-dimethyl-4-oxo-2-thioxoimidazolidin-1-yl)cyclohexyl)propyl)-2,6-dimethylpiperazin-1-yl)-N-(6-(2,6-dioxopiperidin-3-yl)pyridin-3-yl)acetamide hydrochloride], the DC50 was not above 5 nM and the remaining activity at up to 5 µM is 20 to 30%.
As to `C[C@@H]1C[C@H](CCO[C@H]2CC[C@H](N3C(=S)N(c4cnc(C#N)c(C(F)(F)F)c4)C(=O)C3(C)C)CC2)C[C@H](C)N1CC(=O)Nc1ccc(C2CCC(=O)NC2=O)nc1` (stereo partly drawn) [Cmpd 18, 2-((2R,4r,6S)-4-(2-(((trans)-4-(3-(6-Cyano-5-(trifluoromethyl)pyridin-3-yl)-5,5-dimethyl-4-oxo-2-thioxoimidazolidin-1-yl)cyclohexyl)oxy)ethyl)-2,6-dimethylpiperidin-1-yl)-N-(6-(2,6-dioxopiperidin-3-yl)pyridin-3-yl)acetamide], the DC50 is not above 5 nM and the remaining activity at up to 5 µM is 0 to 20%.
Take `C[C@@H]1C[C@H](OCC[C@H]2CC[C@H](N3C(=S)N(c4cnc(C#N)c(C(F)(F)F)c4)C(=O)C3(C)C)CC2)C[C@H](C)N1CC(=O)Nc1ccc(C2CCC(=O)NC2=O)nc1` (stereo partly drawn) [Cmpd 28, 2-((2R,4r,6S)-4-(2-((trans)-4-(3-(6-Cyano-5-(trifluoromethyl)pyridin-3-yl)-5,5-dimethyl-4-oxo-2-thioxoimidazolidin-1-yl)cyclohexyl)ethoxy)-2,6-dimethylpiperidin-1-yl)-N-(6-(2,6-dioxopiperidin-3-yl)pyridin-3-yl)acetamide]: the 50% degradation concentration (DC50) is not above 5 nM and the remaining activity at up to 5 µM is 20 to 30%.
Consider `C[C@@H]1C[C@H](OCC[C@H]2CC[C@H](N3C(=S)N(c4ccc(C#N)c(C(F)(F)F)c4)C(=O)C3(C)C)CC2)C[C@H](C)N1CC(=O)Nc1ccc(C2CCC(=O)NC2=O)nc1` (stereo partly drawn) [Cmpd 27, 2-((2R,4r,6S)-4-(2-((trans)-4-(3-(4-Cyano-3-(trifluoromethyl)phenyl)-5,5-dimethyl-4-oxo-2-thioxoimidazolidin-1-yl)cyclohexyl)ethoxy)-2,6-dimethylpiperidin-1-yl)-N-(6-(2,6-dioxopiperidin-3-yl)pyridin-3-yl)acetamide], for which the DC50 lay within 5 to 10 nM and the remaining activity at up to 5 µM was 20 to 30%.
For `CC1(C)C(=O)N(c2ccc(C#N)c(C(F)(F)F)c2)C(=S)N1[C@H]1CC[C@H](OCCCN2CCN(CC(=O)Nc3ccc(C4CCC(=O)NC4=O)nc3)[C@@H](C(F)(F)F)C2)CC1` (stereo partly drawn) [Cmpd 25, 2-((R)-4-(3-(((trans)-4-(3-(4-Cyano-3-(trifluoromethyl)phenyl)-5,5-dimethyl-4-oxo-2-thioxoimidazolidin-1-yl)cyclohexyl)oxy)propyl)-2-(trifluoromethyl)piperazin-1-yl)-N-(6-(2,6-dioxopiperidin-3-yl)pyridin-3-yl)acetamide], in that order: not above 5 nM and 20 to 30%.
For `C[C@@H]1C[C@@H](CCO[C@H]2CC[C@H](N3C(=S)N(c4cnc(C#N)c(C(F)(F)F)c4)C(=O)C3(C)C)CC2)C[C@H](C)N1CC(=O)Nc1ccc(C2CCC(=O)NC2=O)nc1` (stereo partly drawn) [Cmpd 19, 2-((2R,4s,6S)-4-(2-(((trans)-4-(3-(6-Cyano-5-(trifluoromethyl)pyridin-3-yl)-5,5-dimethyl-4-oxo-2-thioxoimidazolidin-1-yl)cyclohexyl)oxy)ethyl)-2,6-dimethylpiperidin-1-yl)-N-(6-(2,6-dioxopiperidin-3-yl)pyridin-3-yl)acetamide], in that order: not above 5 nM and 20 to 30%.
For the compound `C[C@@H]1C[C@H](OCCC[C@H]2CC[C@H](N3C(=S)N(c4ccc(C#N)c(C(F)(F)F)c4)C(=O)C3(C)C)CC2)C[C@H](C)N1CC(=O)Nc1ccc(C2CCC(=O)NC2=O)nc1` (stereo partly drawn) [Cmpd 20, 2-((2R,4r,6S)-4-(3-((trans)-4-(3-(4-Cyano-3-(trifluoromethyl)phenyl)-5,5-dimethyl-4-oxo-2-thioxoimidazolidin-1-yl)cyclohexyl)propoxy)-2,6-dimethylpiperidin-1-yl)-N-(6-(2,6-dioxopiperidin-3-yl)pyridin-3-yl)acetamide], the DC50 lay within 5 to 10 nM and the remaining activity at up to 5 µM lay in the range of 20 to 30%.
Turning to `C[C@@H]1C[C@@H](CCO[C@H]2CC[C@H](N3C(=S)N(c4ccc(C#N)c(C(F)(F)F)c4)C(=O)C3(C)C)CC2)C[C@H](C)N1CC(=O)Nc1ccc(C2CCC(=O)NC2=O)nc1` (stereo partly drawn) [Cmpd 14, 2-((2R,4r,6S)-4-(2-((trans-4-(3-(4-Cyano-3-(trifluoromethyl)phenyl)-5,5-dimethyl-4-oxo-2-thioxoimidazolidin-1-yl)cyclohexyl)oxy)ethyl)-2,6-dimethylpiperidin-1-yl)-N-(6-(2,6-dioxopiperidin-3-yl)pyridin-3-yl)acetamide hydrochloride], the DC50 was not above 5 nM and the remaining activity at up to 5 µM is 20 to 30%.
